Assays:
human HDAC2 = target: T1, human HDAC2 (Homo sapiens, UniProt Q92769); test: HDAC2 enzymatic activity assay (fluorogenic peptide); format: biochemical; details: 10-dose, 3-fold serial dilution, triplicate
T1 construct: His (C); purchased BioMol SE-500; host or cells: baculovirus / Sf9 cells
Procedure: (§1) Peptide substrates: all HDAC assays were performed using acetylated peptide substrates labeled with 7-amino-4-methylcoumarin (AMC): • Substrate for isoforms HDAC1, 2, 3, 6, 10, 11, and HeLa nuclear extract assays: acetylated fluorogenic peptide from p53 residues 379-382 (RHKKAc). • Substrate for isoforms HDAC4, 5, 7, 9: fluorogenic Boc-L-Lys (s-trifluoroacetyl)-AMC. • Substrate for HDAC8 assays: acetylated fluorogenic peptide from p53 residues 379-382 (RHKAcKAc).
(§2) 50 μl of peptide substrate (see “peptide substrates” section above) and an optimal concentration of the corresponding enzyme (see “enzymes” section above) in the assay buffer at a final DMSO concentration of 1% were incubated in the presence of gradient concentrations of inhibitors (10-dose IC50 mode with 3-fold serial dilution) at 30° C. for 2 hours. The reactions were carried out in a 96-well microplate for fluorometry in a 50 μl reaction volume. After the deacetylation reaction, Fluor-de-Lys-Developer (BioMol Cat. #KI-105) was added to each well to digest the deacetylated substrate, thereby producing the fluorescent signal. The reaction was carried out for 45 minutes at 30° C. with 5% CO2; the fluorescent signal was then measured using an excitation wavelength of 360 nm and an emission wavelength of 460 nm in a microplate-reading fluorometer (GeminiXS, Molecular Devices, Sunnyvale, CA). A curve of deacetylated standard (Biomol, Cat. #KI-142; made from 100 μM with 1:2 dilution and 10 doses, 6 μl) allowed the conversion of the fluorescent signal into micromoles of deacetylated product. All experiments were performed in triplicate. The IC50s were calculated by fitting the experimental data to dose-response curve. DMSO was used as negative control; Trichostatin A (Biomol Cat. #GR-309) was used as positive control inhibitor.
(§3) Enzymatic activity assays were carried out in 11 HDAC enzymes, including HDAC6.

human HDAC6 = target: T2, human HDAC6 (Homo sapiens, UniProt Q9UBN7); test: HDAC6 enzymatic activity assay (fluorogenic peptide); format: biochemical; details: for IC50: 10-dose, 3-fold serial dilution, triplicate
T2 construct: GST (N); purchased BioMol SE-508; host or cells: baculovirus / Sf9 cells
T2 sequence (Q9UBN7 1-1215): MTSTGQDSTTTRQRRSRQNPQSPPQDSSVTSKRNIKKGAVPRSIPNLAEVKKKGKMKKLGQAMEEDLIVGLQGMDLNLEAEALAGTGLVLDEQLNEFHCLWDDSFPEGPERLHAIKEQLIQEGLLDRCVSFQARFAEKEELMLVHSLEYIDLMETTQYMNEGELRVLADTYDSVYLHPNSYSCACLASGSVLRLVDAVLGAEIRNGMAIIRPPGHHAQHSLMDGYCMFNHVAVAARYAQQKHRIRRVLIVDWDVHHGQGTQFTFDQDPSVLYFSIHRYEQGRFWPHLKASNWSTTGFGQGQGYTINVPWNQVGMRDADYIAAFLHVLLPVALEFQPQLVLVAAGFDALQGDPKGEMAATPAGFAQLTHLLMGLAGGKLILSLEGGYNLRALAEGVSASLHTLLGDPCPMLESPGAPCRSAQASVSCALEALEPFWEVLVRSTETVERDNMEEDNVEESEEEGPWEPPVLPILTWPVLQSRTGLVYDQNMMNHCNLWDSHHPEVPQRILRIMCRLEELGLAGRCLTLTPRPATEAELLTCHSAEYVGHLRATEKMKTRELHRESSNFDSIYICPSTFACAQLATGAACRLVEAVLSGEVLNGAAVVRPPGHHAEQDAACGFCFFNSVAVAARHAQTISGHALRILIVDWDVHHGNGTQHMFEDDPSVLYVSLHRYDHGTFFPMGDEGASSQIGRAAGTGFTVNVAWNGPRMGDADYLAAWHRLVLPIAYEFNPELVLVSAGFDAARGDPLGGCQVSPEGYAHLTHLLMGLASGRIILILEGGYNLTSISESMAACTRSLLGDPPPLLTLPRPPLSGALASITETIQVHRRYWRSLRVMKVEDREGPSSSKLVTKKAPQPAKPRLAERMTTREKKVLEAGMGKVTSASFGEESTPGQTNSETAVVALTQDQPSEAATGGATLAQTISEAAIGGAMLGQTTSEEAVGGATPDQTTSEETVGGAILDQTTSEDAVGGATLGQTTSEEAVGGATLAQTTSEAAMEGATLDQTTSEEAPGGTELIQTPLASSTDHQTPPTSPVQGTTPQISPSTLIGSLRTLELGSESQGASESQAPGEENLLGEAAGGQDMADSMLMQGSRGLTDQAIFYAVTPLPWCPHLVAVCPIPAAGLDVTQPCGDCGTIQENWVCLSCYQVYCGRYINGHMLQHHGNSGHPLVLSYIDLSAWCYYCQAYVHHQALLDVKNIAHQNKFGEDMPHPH
Procedure: as §1, §2, §3

human HDAC7 = target: T3, human HDAC7 (Homo sapiens, UniProt Q8WUI4); test: HDAC7 enzymatic activity assay (fluorogenic peptide); format: biochemical; details: 10-dose, 3-fold serial dilution, triplicate
T3 construct: amino acids 518 end with GST N-terminal tag, MW=78 kDa; GST (N); purchased BioMol, Hamburg, Germany; host or cells: baculovirus expression system
T3 sequence (Q8WUI4 479-952 limits assumed): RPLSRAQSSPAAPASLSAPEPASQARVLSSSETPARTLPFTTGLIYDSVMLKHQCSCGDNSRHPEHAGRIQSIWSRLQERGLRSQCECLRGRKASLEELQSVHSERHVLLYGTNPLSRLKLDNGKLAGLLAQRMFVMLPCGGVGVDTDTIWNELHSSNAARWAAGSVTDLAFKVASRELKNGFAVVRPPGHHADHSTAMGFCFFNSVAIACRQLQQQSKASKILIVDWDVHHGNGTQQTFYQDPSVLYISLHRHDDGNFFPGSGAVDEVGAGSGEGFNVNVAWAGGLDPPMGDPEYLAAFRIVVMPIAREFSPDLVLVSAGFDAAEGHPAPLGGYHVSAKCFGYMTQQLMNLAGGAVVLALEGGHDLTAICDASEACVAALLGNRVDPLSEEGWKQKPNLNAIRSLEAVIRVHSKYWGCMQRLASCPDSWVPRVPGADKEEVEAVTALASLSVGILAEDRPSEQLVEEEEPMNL
Procedure: as §1, §2, §3

human HDAC9 = human HDAC9 (Homo sapiens, UniProt Q9UKV0); test: HDAC9 enzymatic activity assay (fluorogenic peptide); format: biochemical; details: 10-dose, 3-fold serial dilution, triplicate
Sequence of human HDAC9 (Q9UKV0 604-1066 isoform Q9UKV0-5): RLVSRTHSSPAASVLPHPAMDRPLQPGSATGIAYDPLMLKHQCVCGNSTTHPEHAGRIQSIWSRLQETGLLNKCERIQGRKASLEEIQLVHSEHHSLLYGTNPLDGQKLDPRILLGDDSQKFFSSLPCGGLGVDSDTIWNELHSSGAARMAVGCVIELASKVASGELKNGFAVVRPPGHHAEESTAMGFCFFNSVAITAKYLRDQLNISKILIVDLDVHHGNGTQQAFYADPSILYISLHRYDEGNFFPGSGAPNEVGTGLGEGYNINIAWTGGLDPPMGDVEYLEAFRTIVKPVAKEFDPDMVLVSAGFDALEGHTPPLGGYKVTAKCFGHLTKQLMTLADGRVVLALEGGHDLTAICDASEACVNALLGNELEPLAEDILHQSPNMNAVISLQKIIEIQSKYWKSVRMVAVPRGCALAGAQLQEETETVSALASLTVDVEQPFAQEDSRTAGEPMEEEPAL
Procedure: as §1
50 μl of peptide substrate (see “peptide substrates” section above) and an optimal concentration of the corresponding enzyme (see “enzymes” section above) in the assay buffer at a final DMSO concentration of 1% were incubated in the presence of gradient concentrations of inhibitors (10-dose IC50 mode with 3-fold serial dilution) at 30° C. for 2 hours. The reactions were carried out in a 96-well microplate for fluorometry in a 50 μl reaction volume. After the deacetylation reaction, Fluor-de-Lys-Developer (BioMol Cat. #KI-105) was added to each well to digest the deacetylated substrate, thereby producing the fluorescent signal. The reaction was carried out for 45 minutes at 30° C. with 5% CO2; the fluorescent signal was then measured using an excitation wavelength of 360 nm and an emission wavelength of 460 nm in a microplate-reading fluorometer (GeminiXS, Molecular Devices, Sunnyvale, CA). […]

HDAC enzymes = test: Enzymatic activity assays in 11 HDAC enzymes (statements on the panel); format: biochemical, human; details: HDAC enzymes other than HDAC6
Procedure: as §1, §2, §3

T1 sequence (Q92769 whole entry): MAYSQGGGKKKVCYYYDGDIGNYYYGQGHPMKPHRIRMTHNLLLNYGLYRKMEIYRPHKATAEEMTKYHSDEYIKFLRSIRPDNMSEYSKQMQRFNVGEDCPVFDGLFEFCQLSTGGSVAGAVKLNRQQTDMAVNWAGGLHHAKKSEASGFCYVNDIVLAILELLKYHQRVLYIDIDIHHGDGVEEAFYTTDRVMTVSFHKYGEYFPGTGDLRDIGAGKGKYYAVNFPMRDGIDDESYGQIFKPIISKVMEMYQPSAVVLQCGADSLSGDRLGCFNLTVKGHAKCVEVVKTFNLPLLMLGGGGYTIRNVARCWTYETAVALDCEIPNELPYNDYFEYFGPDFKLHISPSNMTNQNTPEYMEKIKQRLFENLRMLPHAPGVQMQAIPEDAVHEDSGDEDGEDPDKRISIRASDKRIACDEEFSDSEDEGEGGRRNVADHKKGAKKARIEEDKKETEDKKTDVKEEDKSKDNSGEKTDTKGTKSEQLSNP

C[C@H](CCC(=O)NCc1ccc(C(=O)NO)cc1)[C@H]1CC[C@H]2[C@@H]3[C@@H](O)C[C@@H]4C[C@H](O)CC[C@]4(C)[C@H]3CC[C@]12C [Compound Ia]
IC50 (human HDAC2): 18.8 µM
selectivity and inhibitory capacity with respect to HDAC6 enzyme (human HDAC6): nanomolar range
IC50 (human HDAC6): 0.058 µM
HDAC6 selectivity proportion (human HDAC6; matches IC50 HDAC1 / IC50 HDAC6): 174
IC50 (human HDAC7): 7.47 µM
IC50 (human HDAC9): 13.4 µM
inhibitory capacity with respect to the rest of the HDAC enzymes (HDAC enzymes): micromolar range

C[C@H](CCC(=O)NCC(=O)NCc1ccc(C(=O)NO)cc1)[C@H]1CC[C@H]2[C@@H]3[C@@H](O)C[C@@H]4C[C@H](O)CC[C@]4(C)[C@H]3CC[C@]12C [Ib, 4-((2-((R)-4 ((3R,5S,7S,8R,9S,10S,13R,14S,17R)-3,7-dihydroxy-10,13-dimethylhexadecahydro-1H-cyclopenta[a]phenanthren-17-yl)pentanamide)acetamido)methyl)-N-hydroxybenzamide]
IC50 (human HDAC2): 13.2 µM
selectivity and inhibitory capacity with respect to HDAC6 enzyme (human HDAC6): nanomolar range
IC50 (human HDAC6): 0.0561 µM
IC50 (human HDAC7): 17.6 µM
IC50 (human HDAC9): 11.6 µM
inhibitory capacity with respect to the rest of the HDAC enzymes (HDAC enzymes): micromolar range

From patent publication US11833160B2, “Ursodeoxycholic acid derivatives as HDAC inhibitors for the treatment of polycystic diseases” (UNIVERSIDAD DEL PAIS VASCO/EUSKAL HERRIKO UNIBERTSITATEA, priority 2017, dated 2023)
